Laboratory results published in US12385839B2, “Use of protein in predicting drug properties” (priority 2021, dated 2025).
Read-outs that look alike come from different tables or passages of the source.

Assays:
[1] = target: T1, human serum albumin (HSA) (Homo sapiens, UniProt P02768); assay: Fluorescence emission spectrum (quenching) of HSA with carbamate pesticides; format: binding; settings: for Ksv (37°) / ΔG(37°) / Binding distance/r / Number of binding sites/n: modelling table; for Kq / Ksv / n (number of binding sites) / Kd: pH 7.4; for R (binding distance): Förster energy transfer; for fluorescence of HSA quenched by pesticide: titration of pesticide; for ΔH^0 / ΔS^0: Van't Hoff, 296-310 K
T1 sequence (P02768 25-609): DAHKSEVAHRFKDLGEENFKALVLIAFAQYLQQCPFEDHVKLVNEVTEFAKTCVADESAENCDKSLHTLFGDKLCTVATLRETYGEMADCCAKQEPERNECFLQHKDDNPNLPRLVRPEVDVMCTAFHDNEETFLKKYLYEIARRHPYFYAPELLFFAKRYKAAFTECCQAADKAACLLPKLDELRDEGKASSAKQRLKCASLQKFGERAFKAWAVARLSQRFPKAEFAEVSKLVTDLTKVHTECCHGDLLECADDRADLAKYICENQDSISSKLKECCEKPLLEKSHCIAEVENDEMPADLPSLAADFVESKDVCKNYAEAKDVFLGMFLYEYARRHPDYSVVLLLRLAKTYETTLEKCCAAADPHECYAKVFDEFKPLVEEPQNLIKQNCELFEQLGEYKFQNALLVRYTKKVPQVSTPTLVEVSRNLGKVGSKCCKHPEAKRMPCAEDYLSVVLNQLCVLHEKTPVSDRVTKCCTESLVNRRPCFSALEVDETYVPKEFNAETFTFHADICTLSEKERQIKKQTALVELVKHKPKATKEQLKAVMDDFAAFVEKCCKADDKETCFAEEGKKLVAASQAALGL
Method: the mixed solution to be tested was preheated at […] for 3 minutes, and the emission spectrum of HSA with carbamate pesticides was measured at 300-500 nm . The excitation wavelength was set at 280 nm , and the slit width for both excitation and emission was 15 nm; the HSA concentration was kept constant at 5×10^−7 M, and the pesticide concentration was (0-105)×10^−7 M.
The internal filtering effect of fluorescence signal was corrected according to the following formula: Fcor=Fobsexp[(Aex+Aem)/2] (1);
in this formula, Fcor and Fobs represent corrected fluorescence signal and observed fluorescence signal, respectively, and Aex and Aem represent absorbance of the mixed solution to be tested at excitation wavelength and emission wavelengths, respectively; the quenching constant, number of binding sites, binding constant, free energy and binding distance of different drugs were obtained by fluorescence emission spectra, and a BP neural network model was obtained. Specifically, they were obtained as follows:
There is a linear relationship between F0/F and [Q] to distinguish whether it is static quenching or dynamic quenching. The fluorescence quenching data are analyzed by Stern-Volmer equation to clarify the quenching mechanism: F0/F=1+KSV[Q]=1+Kqτ0[Q] (2);
in the formula, F0 and F are fluorescence signals […] quencher, respectively. Ksv is Stern-Volmer quenching constant; Kq is a quenching rate constant of biomolecules; τ0 is the average lifetime of biomolecules without quencher (about 10^−8 s); [Q] is the concentration of quencher.
The maximum dynamic quenching rate constant of all kinds of quenchers on polymers was 2.0×10^10 L·mol^−1·s^−1. Static quenching and dynamic quenching could be judged according to this value. If K^q was greater than 2.0×10^10 L·mol^−1·s^−1, it belonged to static quenching. Otherwise, it belonged to dynamic quenching.
In this part, the binding sites and binding constants between carbamate pesticides and HSA were calculated. The following formula was used to calculate the number of binding sites (n) and the binding constant (Ka) of carbamate pesticides and HSA: log[(F0−F)/F]=log Ka+nlog[Q] (3);
The interactions between biological molecules and drug molecules were weak intermolecular interactions, including hydrogen bonds, van der Waals forces, electrostatic forces and hydrophobic interactions. By using Van't Hoff equation, the thermodynamic constants of drug-protein interaction were obtained, and the main types of drug-protein interaction were judged according to the changes of binding constants under different conditions. LnK=−ΔH^0/RT+ΔS^0/R (4); ΔG^0=ΔH^0−TΔS^0 (5);
There is a relationship among energy transfer efficiency E, distance r between energy donor and energy receptor and energy transfer distance R0. E=1−F/F0=R0^6/(R0^6+r^6) (6);
E represents the transfer efficiency between donor and receptor, r is the average distance between donor and receptor, and R0 is the critical distance when the transfer efficiency is 50%. R0^6=8.79×10^−K^2N^−4φJ (7)
K^2 is the orientation related to the geometry of donor and receptor of dipole. For random orientation in fluid, K^2=2/3; N is the average refractive index of the medium in the wavelength range with obvious spectral overlap, and the refractive index of water and organic matter is 1.336; φ is the quantum yield of donor, and the quantum yield of tryptophan in HSA is about 0.118; J represents the influence of spectral overlap between the emission spectrum of the donor and the absorption spectrum of the receptor, and can be calculated by the following formula: j=ΣF(λ)ϵ(λ)λ^4Δλ/ΣF(λ) Δλ (8);
F(λ) is the corrected fluorescence signal of the donor in the wavelength range from λ to (λ+Δλ), while ϵ(λ) is the extinction coefficient of the receptor at λ.

[2] = cited from earlier work; for LD50: modelling table; for Toxicity: toxicity grade by LD50, trailing figure = number of pesticides in group
[3] = target: T1, human serum albumin (HSA); assay: Circular dichroism spectrum, secondary structure (α-helix content) of HSA; settings: HSA 2×10^−6 M
Method: the mixed solution to be tested was preheated at […] for 2-5 minutes, and the CD spectrum of HSA was recorded in the wavelength range of 200-500 nm . The concentration of HSA was kept at 2×10^−6 M, and the pesticide was (0-20)×10^−6 m. Firstly, HSA was measured, and then the ratio of HSA to pesticides needed to be determined specifically, which was preliminarily determined according to the ratio of 1:1, 1:2 and 1:3.
According to the following equation, the result of CD spectrum was usually expressed as the mean residue ellipticity (MRE), and the unit was deg·cm^2·dmol^−1. MRE=ObservedCD(mdeg)/(10Cpnl) (9);
in which Cp is the molar concentration of protein, n is the number (585) of amino acid residues, and 1 is the path length (1 mm). The α helicity of free and bound HSA is calculated from MRE values using the following formula: α−Helix(%)=[(−MRE208−4000)×100]/(33000-4000) (10)
in which the MRE208 is the MRE value observed at 208 nm , 4000 is the MRE value of random coil conformation at 208 nm , and […] is the MRE value of pure α helix at 208 nm .

[4] = 296 K, read-out: Ka (binding constant)
[5] = 303 K, read-out: Ka (binding constant)
[6] = 310 K, read-out: Ka (binding constant)

Row | SMILES | Ksv (37°) [1] | ΔG(37°) [1] | ΔG^0 ([1]; 296 K) [kcal/mol] | Kq ([1]; 296 K) | Ksv ([1]; 296 K) | n (number of binding sites) ([1]; 296 K) | ΔG^0 ([1]; 303 K) [kcal/mol] | Kq ([1]; 303 K) | Ksv ([1]; 303 K) | n (number of binding sites) ([1]; 303 K) | ΔG^0 ([1]; 310 K) [kcal/mol] | R (binding distance) ([1]; 310 K) [nm] | Kq ([1]; 310 K) | Ksv ([1]; 310 K) | n (number of binding sites) ([1]; 310 K) | fluorescence of HSA quenched by pesticide ([1]; 310 K) | ΔH^0 [1] [kcal/mol] | ΔS^0 [1] [J · mol^−1 · K^−1] | Binding distance/r [1] | Number of binding sites/n [1] | also measured
1 | CNC(=O)Oc1ccccc1OC(C)C [Propoxur, propoxur] | 50525.98687 | −20.63 | -4.1912 | 3.425 ± 0.132 10^12 M^−1s^−1 | 3.425 ± 0.132 10^4 M^−1 | 0.706 ± 0.014 | -4.5607 | 4.353 ± 0.121 10^12 M^−1s^−1 | 4.353 ± 0.121 10^4 M^−1 | 0.729 ± 0.013 | -4.93 | 3.138 | 5.053 ± 0.120 10^12 M^−1s^−1 | 5.053 ± 0.120 10^4 M^−1 | 0.757 ± 0.011 | quenched | 11.43 | 220.816 | 3.138 | 0.7565 | Kd ([1]; Ka (binding constant), 296 K): 794 µM; Kd ([1]; Ka (binding constant), 303 K): 527 µM; Kd ([1]; Ka (binding constant), 310 K): 330 µM; LD50 [2]: 41 mg/kg; Toxicity [2]: Highly; α-helix contents ([3]; 5:1 (Pesticide:HSA)): 50.121%; α-helix contents ([3]; 10:1 (Pesticide:HSA)): 49.341%
2 | CNC(=O)Oc1cccc(C)c1 [Metolcarb, metolcarb] | 44415.60221 | −16.22 | -3.1766 | 3.261 ± 0.020 10^12 M^−1s^−1 | 3.261 ± 0.020 10^4 M^−1 | 0.564 ± 0.012 | -3.5268 | 3.415 ± 0.159 10^12 M^−1s^−1 | 3.415 ± 0.159 10^4 M^−1 | 0.587 ± 0.001 | -3.8772 | 2.525 | 4.442 ± 0.118 10^12 M^−1s^−1 | 4.442 ± 0.118 10^4 M^−1 | 0.616 ± 0.003 | quenched | 11.633 | 209.338 | 2.525 | 0.6156 | Kd ([1]; Ka (binding constant), 296 K): 4450 µM; Kd ([1]; Ka (binding constant), 303 K): 2950 µM; Kd ([1]; Ka (binding constant), 310 K): 1820 µM; LD50 [2]: 268 mg/kg; Toxicity [2]: Moderately; α-helix contents ([3]; 5:1 (Pesticide:HSA)): 53.549%; α-helix contents ([3]; 10:1 (Pesticide:HSA)): 53.215%
3 | CNC(=O)Oc1ccccc1C(C)C [Isoprocarb, isoprocarb] | 30154.52708 | −18.11 | -3.6472 | 2.175 ± 0.070 10^12 M^−1s^−1 | 2.175 ± 0.070 10^4 M^−1 | 0.669 ± 0.004 | -3.9873 | 2.758 ± 0.048 10^12 M^−1s^−1 | 2.758 ± 0.048 10^4 M^−1 | 0.689 ± 0.004 | -4.3274 | 2.338 | 3.015 ± 0.043 10^12 M^−1s^−1 | 3.015 ± 0.043 10^4 M^−1 | 0.712 ± 0.009 | quenched | 10.734 | 203.281 | 2.338 | 0.7116 | Kd ([1]; Ka (binding constant), 296 K): 2050 µM; Kd ([1]; Ka (binding constant), 303 K): 1300 µM; Kd ([1]; Ka (binding constant), 310 K): 900 µM; LD50 [2]: 450 mg/kg; Toxicity [2]: Moderately; α-helix contents ([3]; 5:1 (Pesticide:HSA)): 50.878%; α-helix contents ([3]; 10:1 (Pesticide:HSA)): 49.242%
4 | CNC(=O)O/N=C(\SC)C(=O)N(C)C [Oxamyl, oxamyl] | 66054.55780 | −22.83 | -4.8592 | 5.229 ± 0.185 10^12 M^−1s^−1 | 5.229 ± 0.185 10^4 M^−1 | 0.774 ± 0.016 | -5.158 | 5.735 ± 0.073 10^12 M^−1s^−1 | 5.735 ± 0.073 10^4 M^−1 | 0.789 ± 0.004 | -5.4567 | 2.564 | 6.605 ± 0.058 10^12 M^−1s^−1 | 6.605 ± 0.058 10^4 M^−1 | 0.807 ± 0.003 | quenched | 7.7713 | 178.534 | 2.564 | 0.8074 | Kd [1, 4]: 255 µM; Kd [1, 5]: 195 µM; Kd [1, 6]: 141 µM; LD50 [2]: 2.5 mg/kg; Toxicity [2]: Highly; α-helix contents ([3]; 5:1 (Pesticide:HSA)): 50.883%; α-helix contents ([3]; 10:1 (Pesticide:HSA)): 49.354%
5 | CNC(=O)Oc1cc(C)cc(C)c1 [XMC, 3,5-xylyl methylcarbamate] | 48304.67460 | −22.81 | -4.4097 | 4.145 ± 0.187 10^12 M^−1s^−1 | 4.145 ± 0.187 10^4 M^−1 | 0.734 ± 0.005 | -4.9309 | 4.362 ± 0.151 10^12 M^−1s^−1 | 4.362 ± 0.151 10^4 M^−1 | 0.779 ± 0.012 | -5.4522 | 2.033 | 4.830 ± 0.108 10^12 M^−1s^−1 | 4.830 ± 0.108 10^4 M^−1 | 0.832 ± 0.006 | quenched | 17.634 | 311.582 | 2.033 | 0.8317 | Kd [1, 4]: 539 µM; Kd [1, 5]: 294 µM; Kd [1, 6]: 139 µM; LD50 [2]: 245 mg/kg; Toxicity [2]: Moderately; α-helix contents ([3]; 5:1 (Pesticide:HSA)): 55.392%; α-helix contents ([3]; 10:1 (Pesticide:HSA)): 54.416%
